Source: PubChem BioAssay AID248 (DTP/NCI, 2004)
Several values for one entry are separate records, joined by “and”; a condition that tells them apart may be missing. Identical values can stand only once. Inconclusive results and toxic doses are left out. No stated cut-off is given here; in the data, active means T/C of 150% or more; inactive means T/C below 125%.

Test system: L1210 leukemia ip in BDF1 mice, survival T/C
Assay: NCI In Vivo Anticancer Drug Screen. Data for tumor model L1210 Leukemia (intraperitoneal) in B6D2F1 (BDF1) mice
Settings: endpoint: mean survival time, higher = longer survival
Method: The antitumor activity of compounds was measured in mice bearing transplantable tumors. Survival or tumor size were measured and the results are expressed as the measurement made in the treated group (T) divided by the measurement made in the vehicle treated control group (C). The tumor model used in this assay is L1210 Leukemia (intraperitoneal) in B6D2F1 (BDF1) mice

[1] = dose: 100.0 mg/kg/injection, schedule: Q04DX003 (ip), vehicle: Klucel (hydroxypropylcellulose) (HPC)
[2] = dose: 200.0 mg/kg/injection, schedule: Q04DX003 (ip), vehicle: Klucel (hydroxypropylcellulose) (HPC)
[3] = dose: 400.0 mg/kg/injection, schedule: Q04DX003 (ip), vehicle: Klucel (hydroxypropylcellulose) (HPC)
[4] = dose: 100.0 mg/kg/injection, schedule: Q01DX009 (ip), vehicle: saline
[5] = dose: 100.0 mg/kg/injection, schedule: Q04DX003 (ip), vehicle: saline
[6] = dose: 200.0 mg/kg/injection, schedule: Q01DX009 (ip), vehicle: saline
[7] = dose: 200.0 mg/kg/injection, schedule: Q04DX003 (ip), vehicle: saline
[8] = dose: 400.0 mg/kg/injection, schedule: Q01DX009 (ip), vehicle: saline
[9] = dose: 400.0 mg/kg/injection, schedule: Q04DX003 (ip), vehicle: saline
[10] = dose: 100.0 mg/kg/injection, schedule: Q01DX001 (ip), vehicle: carboxymethylcellulose (CMC)
[11] = dose: 200.0 mg/kg/injection, schedule: Q01DX001 (ip), vehicle: carboxymethylcellulose (CMC)
[12] = dose: 100.0 mg/kg/injection, schedule: Q01DX009 (ip), vehicle: Klucel (hydroxypropylcellulose) (HPC)
[13] = dose: 200.0 mg/kg/injection, schedule: Q01DX009 (ip), vehicle: Klucel (hydroxypropylcellulose) (HPC)
[14] = dose: 100.0 mg/kg/injection, schedule: Q01DX009 (ip), vehicle: saline with Tween-80
[15] = dose: 200.0 mg/kg/injection, schedule: Q01DX009 (ip), vehicle: saline with Tween-80
[16] = dose: 400.0 mg/kg/injection, schedule: Q01DX009 (ip), vehicle: saline with Tween-80
[17] = dose: 100.0 mg/kg/injection, schedule: Q01DX001 (ip), vehicle: saline
[18] = dose: 200.0 mg/kg/injection, schedule: Q01DX001 (ip), vehicle: saline
[19] = dose: 400.0 mg/kg/injection, schedule: Q01DX001 (ip), vehicle: saline

Measured: T/C

CN1C(=O)c2c(Cl)c(Cl)c(Cl)c(Cl)c2C1=O
inactive: dose: 222.0 mg/kg/injection, schedule: Q01DX Z (ip), vehicle: methylcellulose (MC) 105 % of control | dose: 333.0 mg/kg/injection, schedule: Q01DX Z (ip), vehicle: methylcellulose (MC) 105 % of control | dose: 500.0 mg/kg/injection, schedule: Q01DX Z (ip), vehicle: methylcellulose (MC) 98 % of control

CC(C)C(=O)NNC(=O)C(C)C
inactive: [1] 100 % of control | [2] 108 % of control | [3] 106 % of control

CC(C)NC(=O)c1cc(NC(=O)c2ccc(C(=O)Nc3cc(C(=O)NC(C)C)cc(C4=NCCN4)c3)cc2)cc(C2=NCCN2)c1
inactive: dose: 2.5 mg/kg/injection, schedule: Q01DX015 (ip), vehicle: water 89 % of control | dose: 5.0 mg/kg/injection, schedule: Q01DX015 (ip), vehicle: water 97 % of control | dose: 10.0 mg/kg/injection, schedule: Q01DX015 (ip), vehicle: water 92 % of control | dose: 18.75 mg/kg/injection, schedule: Q01DX015 (ip), vehicle: water 101 % of control | dose: 20.0 mg/kg/injection, schedule: Q01DX015 (ip), vehicle: water 95 % of control | dose: 37.5 mg/kg/injection, schedule: Q01DX015 (ip), vehicle: water 96 % of control

C[C@]12CC[C@H](O)C[C@@H]1CC[C@@H]1[C@@H]2C(=O)C[C@]2(C)C3=CC(=O)O[C@H]3C[C@@H]12
inactive: dose: 5.0 mg/kg/injection, schedule: Q01DX Z (sc), vehicle: steriod suspending solution 94 % of control and 108 % of control | dose: 10.0 mg/kg/injection, schedule: Q01DX Z (sc), vehicle: steriod suspending solution 97 % of control and 100 % of control | dose: 20.0 mg/kg/injection, schedule: Q01DX Z (sc), vehicle: steriod suspending solution 94 % of control and 102 % of control | dose: 40.0 mg/kg/injection, schedule: Q01DX Z (sc), vehicle: steriod suspending solution 94 % of control and 96 % of control and 100 % of control | dose: 80.0 mg/kg/injection, schedule: Q01DX Z (sc), vehicle: steriod suspending solution 104 % of control | dose: 160.0 mg/kg/injection, schedule: Q01DX Z (sc), vehicle: steriod suspending solution 95 % of control | dose: 320.0 mg/kg/injection, schedule: Q01DX Z (sc), vehicle: steriod suspending solution 95 % of control | dose: 640.0 mg/kg/injection, schedule: Q01DX015 (sc), vehicle: steriod suspending solution 100 % of control | dose: 1280.0 mg/kg/injection, schedule: Q01DX015 (sc), vehicle: steriod suspending solution 96 % of control

O=C(/C=C/c1cccnc1)NCC(O)CO (stereo not drawn)
inactive: [4] 101 % of control | [5] 108 % of control | [6] 97 % of control | [7] 105 % of control | [8] 100 % of control | [9] 96 % of control

CCCc1c(Cl)nc(Cl)nc1Cl
inactive: dose: 37.5 mg/kg/injection, schedule: Q01DX009 (ip), vehicle: acetone 111 % of control | dose: 66.0 mg/kg/injection, schedule: Q04DX003 (ip), vehicle: saline 104 % of control and 105 % of control | [10] 100 % of control | [5] 100 % of control and 104 % of control | dose: 150.0 mg/kg/injection, schedule: Q04DX003 (ip), vehicle: saline 106 % of control and 107 % of control | [11] 108 % of control | dose: 400.0 mg/kg/injection, schedule: Q01DX001 (ip), vehicle: carboxymethylcellulose (CMC) 96 % of control

CC(=O)Nc1ccc(OC(=O)Nc2cc(C)ccc2C)cc1
inactive: dose: 25.0 mg/kg/injection, schedule: Q01DX009 (ip), vehicle: Klucel (hydroxypropylcellulose) (HPC) 109 % of control | dose: 50.0 mg/kg/injection, schedule: Q01DX009 (ip), vehicle: Klucel (hydroxypropylcellulose) (HPC) 88 % of control | [12] 94 % of control | dose: 100.0 mg/kg/injection, schedule: Q04DX002 (ip), vehicle: Klucel (hydroxypropylcellulose) (HPC) 102 % of control | [1] 95 % of control | [13] 89 % of control | dose: 200.0 mg/kg/injection, schedule: Q04DX002 (ip), vehicle: Klucel (hydroxypropylcellulose) (HPC) 97 % of control | [2] 97 % of control | dose: 400.0 mg/kg/injection, schedule: Q04DX002 (ip), vehicle: Klucel (hydroxypropylcellulose) (HPC) 100 % of control | [3] 93 % of control

O=C(CNC(=O)Nc1ccc(Cl)c(Cl)c1)N/N=C/c1ccc(F)cc1
inactive: [14] 98 % of control | [15] 96 % of control | [16] 98 % of control

CCOC(=O)/C(C#N)=C(\CC)c1ccccc1
inactive: [12] 98 % of control | [13] 101 % of control

O=C(NCCCCCCNC(=O)NCc1ccc(Cl)c(Cl)c1)NCc1ccc(Cl)c(Cl)c1
inactive: dose: 100.0 mg/kg/injection, schedule: Q01DX009 (ip), vehicle: other 97 % of control | dose: 200.0 mg/kg/injection, schedule: Q01DX009 (ip), vehicle: other 86 % of control | dose: 400.0 mg/kg/injection, schedule: Q01DX009 (ip), vehicle: other 95 % of control

CCCCCCCCCCCCCCCCC/C=N/Nc1nnc(N/N=C/CCCCCCCCCCCCCCCCC)c2ccccc12
inactive: dose: 50.0 mg/kg/injection, schedule: Q01DX001 (ip), vehicle: saline 95 % of control | [17] 103 % of control | [18] 101 % of control | [19] 101 % of control

COc1cc(/C=N/N=C(\N)N[N+](=O)[O-])cc(OC)c1OC
inactive: dose: 100.0 mg/kg/injection, schedule: Q01DX001 (ip), vehicle: saline with Tween-80 114 % of control | dose: 200.0 mg/kg/injection, schedule: Q01DX001 (ip), vehicle: saline with Tween-80 97 % of control | dose: 400.0 mg/kg/injection, schedule: Q01DX001 (ip), vehicle: saline with Tween-80 96 % of control

Cc1ccc(NC(=O)COc2ccc(Cl)cc2Cl)cc1Cl
inactive: dose: 25.0 mg/kg/injection, schedule: Q01DX009 (ip), vehicle: saline with Tween-80 91 % of control | dose: 50.0 mg/kg/injection, schedule: Q01DX009 (ip), vehicle: saline with Tween-80 89 % of control | [14] 86 % of control | [15] 87 % of control | [16] 88 % of control

CC1([N+](=O)[O-])COP(=O)(O)OC1 (stereo not drawn)
inactive: [18] 90 % of control | [19] 97 % of control

O=S(=O)(O)c1ccc(O)c2ncccc12
inactive: [5] 95 % of control | [7] 101 % of control | [9] 101 % of control

Cc1ccc(CC2CC(=O)c3ccccc3C2=O)cc1 (stereo not drawn)
inactive: dose: 100.0 mg/kg/injection, schedule: Q04DX003 (ip), vehicle: saline with Tween-80 91 % of control | dose: 200.0 mg/kg/injection, schedule: Q04DX003 (ip), vehicle: saline with Tween-80 91 % of control | dose: 400.0 mg/kg/injection, schedule: Q04DX003 (ip), vehicle: saline with Tween-80 89 % of control

COC(=O)/C=C\C[P+](c1ccccc1)(c1ccccc1)c1ccccc1
inactive: dose: 12.5 mg/kg/injection, schedule: Q04DX003 (ip), vehicle: saline 103 % of control | dose: 25.0 mg/kg/injection, schedule: Q04DX003 (ip), vehicle: saline 97 % of control | dose: 50.0 mg/kg/injection, schedule: Q04DX003 (ip), vehicle: saline 100 % of control | [17] 101 % of control

O=c1[n-]cc(F)c(=O)[nH]1.O=c1[n-]cc(F)c(=O)[nH]1.[NH2-].[NH2-].[Pt+4]
inactive: dose: 6.25 mg/kg/injection, schedule: Q03HX024 (ip), vehicle: saline with Tween-80 97 % of control | dose: 12.5 mg/kg/injection, schedule: Q03HX024 (ip), vehicle: saline with Tween-80 101 % of control | dose: 25.0 mg/kg/injection, schedule: Q03HX024 (ip), vehicle: saline with Tween-80 99 % of control | dose: 50.0 mg/kg/injection, schedule: Q03HX024 (ip), vehicle: saline with Tween-80 118 % of control | [4] 115 % of control and 105 % of control | [5] 108 % of control and 92 % of control and 97 % of control | [6] 124 % of control and 114 % of control | [7] 93 % of control and 113 % of control and 97 % of control | [8] 109 % of control | [9] 120 % of control and 124 % of control and 101 % of control

O=c1oc2c(CN3CCCC3)c(O)ccc2c2c1CCCC2
inactive: [10] 91 % of control | [11] 98 % of control
